The source of these data is ChEMBL document CHEMBL1138598, “Interactions of curcumin with the PfATP6 model and the implications for its antimalarial mechanism” (Bioorg Med Chem Lett, 2009).

One experiment deals with Plasmodium falciparum. The experiment can be described thus: Antimalarial activity against chloroquine-resistant Plasmodium falciparum FCK by [3H]hypoxanthine uptake. Format: functional, organism-based.
Experiment [1] can be described thus: Binding affinity to Plasmodium falciparum ATPase6.
Experiment [2] is described as follows: Inhibition of Plasmodium falciparum ATPase6 expressed in Xenopus oocytes. Format: cell-based. To be noted: oocyte.

In general, IC50 refers to the point on the concentration scale where inhibition reaches its midpoint. The compound `COc1cc(/C=C/C(=O)CC(=O)/C=C/c2ccc(O)c(OC)c2)ccc1O` [CURCUMIN] yielded an IC50 with Plasmodium falciparum of 15 µM.

Usually Kd stands for the free concentration of one partner at which half of the binding sites on the other are occupied at equilibrium, for simple one-to-one binding. `COc1cc(/C=C/C(=O)CC(=O)/C=C/c2ccc(O)c(OC)c2)ccc1O` (stereo in doubt; form 2) [CURCUMIN] returned an equilibrium dissociation constant (Kd) in experiment [1] of 2.45 µM.

In experiment [2], `C[C@@H]1CC[C@H]2[C@@H](C)C(=O)O[C@@H]3O[C@@]4(C)CC[C@@H]1[C@]32OO4` [ARTEMISININ] had a Kd of 0.15 µM. In the experiment with Plasmodium falciparum, this compound returned an IC50 of 0.045 µM.

In experiment [1], `COc1cc(/C=C/C(=O)CC(=O)/C=C/c2ccc(O)c(OC)c2)ccc1O` (stereo in doubt; form 1) [CURCUMIN] returned a Kd of 1.15 µM.
